# How the values were obtained:
# [1] = Drug loading of post-loaded SIL 30 diffusion blocks, solvent extraction and HPLC; type: physicochemical; conditions: for Drug Loading / Wt. % Loading: loaded 5 mg/mL in acetone 24 hr
# Experimental: Loading. […] . Solutions of 5 mg/mL of drug in acetone were prepared and validated via HPLC. […] Blocks were then divided into an extraction set and a release set.
# Extraction. Drug-loaded blocks were extracted using methods previously described in Section 2.6 using acetone as the extraction solvent. Aliquots were collected and analyzed with HPLC. Weight percent loading was determined as the total drug extracted relative to the mass of the dried blocks.
# Block types 6.0 and 7.6 mm (n=8 of each type) were fabricated in SIL 30. A solution containing 8.562 mg/mL of 4′-ethynyl-2-fluoro-2′-deoxyadenosine (EFdA) in acetone was prepared and validated via HPLC. Blocks were batch immersed in post-loading solution for up to 24 hr. Blocks were divided into extraction (n=4) and release (n=4) sets. EFdA was extracted from blocks in acetone as previously described and quantified with HPLC. Release blocks were individually immersed in 60 mL of SVF and placed in an incubator at 37° C. Aliquots and analysis were completed using methods previously described. EFdA was quantified with HPLC, eluting at 5.31 min at 265 nm.
# A test part described as a diffusion block with dimensions in X, Y, and Z of 10 mm, 20 mm, and 4 mm, respectively, was primarily used. The general flow of the post-loading process is outlined in FIG. 6A. The initial metrics of dimensional and mass measurements were taken for every block used prior to loading or testing. The block was then immersed in a post-loading solution containing a known concentration of the API for a specified duration. The part was removed and measured for swollen metrics. An aliquot of the post-loading solution following part removal was taken for HPLC analysis. The part was then dried in an oven to remove the post-loading solvent, after which the part was measured for dried metrics. These metrics serve as check points to precisely investigate part behavior throughout the post-loading process, specifically dimensional deformations. Once the part was post-loaded it can either be tested for total drug content via an extraction process, outlined in FIG. 6B, or tested for drug release in simulated vaginal fluid (SVF), outlined in FIG. 6C. Aliquots from both processes are taken for HPLC analysis.
# . For these samples, metrics were taken and aliquots were analyzed via HPLC on a C18 column with an optimized method. Extraction aliquots and post-loading solution aliquots were diluted in acetonitrile (ACN) at 1:100 while release samples were analyzed as is. Extracted material includes both the incorporated drug (β-estradiol) as well as leachables/extractables. […] .
# Blocks were further assessed by quantifying the extracted drug via HPLC. The total amount of drug extracted, weight percent loading and loading efficiency were calculated and averaged, with variation described by % RSD. Overall, a slight decrease in loading metrics was observed as a function of loading order. However, once averaged out, these values yielded minimal variability. Additionally, values shown are in-line with those obtained during the reproducibility study (Section 3.2) for methanol.
# Both pre-loaded and post-loaded blocks were extracted in 20 mL of EtOH for 72 hours. Aliquots were taken and analyzed via HPLC. […] . […] Therefore, for the sake of consistency between previous results and subsequently prepared samples, loading values obtained in Round II were used for all calculations.
# [2] = In vitro release from drug-loaded blocks or ring sections in simulated vaginal fluid (SVF); type: physicochemical; conditions: for Drug Release at Zero Order Mass/Day / Drug Release at Zero Order Percent/Day: linear regression from Day 2
# [3] = cited from earlier work
# physchem = conditions: organic solvent or mixture
# [4] = In vivo PK of EFdA-loaded IVRs in macaques; conditions: female pigtailed macaques, 28 days
# Experimental: Macaque size (25 mm OD) 3D printed IVRs post-loaded with EFdA at 45 mg/IVR or 62 mg/IVR were administered to female pigtailed macaques and plasma, PBMCs, vagina and rectal fluids, and vaginal and rectal biopsies were collected over 28 days and analyzed for EFdA concentration and EFdA-TP (triphosphorilated EFdA, EFdA-TP) in PBMCs.
# [5] = SIL 30 block 6.29 ± 0.04 mm, 5 mg/mL in acetone
# [6] = SIL 30 block 6.29 ± 0.04 mm, 5 mg/mL in acetone 24 hr
# [7] = SIL 30 block 7.81 ± 0.08 mm, 5 mg/mL in acetone
# [8] = SIL 30 block 7.81 ± 0.08 mm, 5 mg/mL in acetone 24 hr
# [9] = SIL 30 block 6.21 ± 0.03 mm, 8.562 mg/mL in acetone
# [10] = SIL 30 block 6.21 ± 0.03 mm, 8.562 mg/mL in acetone up to 24 hr
# [11] = SIL 30 block 7.62 ± 0.03 mm, 8.562 mg/mL in acetone
# [12] = SIL 30 block 7.62 ± 0.03 mm, 8.562 mg/mL in acetone up to 24 hr
smiles,measurement,setting,value
"Nc1nc(F)nc2c1ncn2[C@H]1C[C@H](O)[C@@H](CO)O1 [FdA, 2-fluoro-2′-deoxyadenosine]",Normalized Delta SSA,[1]; [5],−91.19 ± 7.35
same,Normalized Wt. % by S-SSA,[1]; [5],47.53 ± 3.10
same,Drug,[1]; [6],18.95 ± 1.28 mg
same,Loading,[1]; [6],1.43 ± 0.10 Wt. %
same,Normalized Delta SSA,[1]; [7],−103.29 ± 2.04
same,Normalized Wt. % by S-SSA,[1]; [7],52.82 ± 1.47
same,Drug,[1]; [8],19.38 ± 0.54 mg
same,Loading,[1]; [8],1.19 ± 0.03 Wt. %
same,Drug Loading,[1]; block 0.65 ± 0.01 mm,2.07 ± 0.06 mg
same,Wt. % Loading,[1]; block 0.65 ± 0.01 mm,1.71 ± 0.07 Wt. %
same,Drug Loading,[1]; block 1.51 ± 0.01 mm,4.07 ± 0.19 mg
same,Wt. % Loading,[1]; block 1.51 ± 0.01 mm,1.60 ± 0.07 Wt. %
same,Drug Loading,[1]; block 2.32 ± 0.02 mm,6.46 ± 0.17 mg
same,Wt. % Loading,[1]; block 2.32 ± 0.02 mm,1.46 ± 0.04 Wt. %
same,Drug Loading,[1]; block 3.26 ± 0.03 mm,9.68 ± 0.70 mg
same,Wt. % Loading,[1]; block 3.26 ± 0.03 mm,1.52 ± 0.11 Wt. %
same,Drug Loading,[1]; block 4.28 ± 0.04 mm,14.42 ± 1.21 mg
same,Wt. % Loading,[1]; block 4.28 ± 0.04 mm,1.62 ± 0.14 Wt. %
same,Drug Loading,[1]; block 6.29 ± 0.04 mm,18.95 ± 1.28 mg
same,Wt. % Loading,[1]; block 6.29 ± 0.04 mm,1.43 ± 0.10 Wt. %
same,Drug Loading,[1]; block 7.81 ± 0.08 mm,19.38 ± 0.54 mg
same,Wt. % Loading,[1]; block 7.81 ± 0.08 mm,1.19 ± 0.03 Wt. %
same,release profile,"[2]; all post-loaded SIL 30 block types, SVF",linear and sustained release following an initial burst
same,Drug Release at Zero Order Mass/Day,"[2]; block 2.32 ± 0.02 mm, SVF",406.25 ± 19.80 µg/day
same,Drug Release at Zero Order Percent/Day,"[2]; block 2.32 ± 0.02 mm, SVF",6.40 ± 0.20 Percent/Day
same,Drug Release at Zero Order Mass/Day,"[2]; block 3.26 ± 0.03 mm, SVF",423.43 ± 17.17 µg/day
same,Drug Release at Zero Order Percent/Day,"[2]; block 3.26 ± 0.03 mm, SVF",3.94 ± 0.06 Percent/Day
same,Drug Release at Zero Order Mass/Day,"[2]; block 4.28 ± 0.04 mm, SVF",450.51 ± 16.45 µg/day
same,Drug Release at Zero Order Percent/Day,"[2]; block 4.28 ± 0.04 mm, SVF",2.93 ± 0.03 Percent/Day
same,Drug Release at Zero Order Mass/Day,"[2]; block 6.29 ± 0.04 mm, SVF",453.56 ± 20.13 µg/day
same,Drug Release at Zero Order Percent/Day,"[2]; block 6.29 ± 0.04 mm, SVF",2.26 ± 0.01 Percent/Day
same,Drug Release at Zero Order Mass/Day,"[2]; block 7.81 ± 0.08 mm, SVF",454.52 ± 20.34 µg/day
same,Drug Release at Zero Order Percent/Day,"[2]; block 7.81 ± 0.08 mm, SVF",1.86 ± 0.04 Percent/Day
same,percent burst release normalized by SSA,"[2]; post-loaded SIL 30 blocks, all block distances, normalized by placebo SSA in SVF",around 40%
same,percent burst release plateau,"[2]; post-loaded SIL 30 blocks, larger block distances, SVF, first 24 hrs",22%
same,log p,[3],−0.57
same,solubility,physchem,9500 µg/mL
"C#C[C@]1(CO)O[C@@H](n2cnc3c(N)nc(F)nc32)C[C@@H]1O [EFdA, 4′-ethynyl-2-fluoro-2′-deoxyadenosine]",Normalized Delta SSA,[1]; [9],−150.63 ± 4.00
same,Normalized Wt. % by S-SSA,[1]; [9],81.4 ± 2.26
same,Drug,[1]; [10],32.76 ± 0.76 mg
same,Loading,[1]; [10],2.41 ± 0.06 Wt. %
same,Normalized Delta SSA,[1]; [11],−195.95 ± 4.41
same,Normalized Wt. % by S-SSA,[1]; [11],99.91 ± 3.67
same,Drug,[1]; [12],36.91 ± 1.18 mg
same,Loading,[1]; [12],2.15 ± 0.07 Wt. %
same,EFdA levels in tissue and fluid samples,[4]; 45 mg/IVR or 62 mg/IVR,above the known efficacious levels
same,EFdA-TP levels in PBMCs,[4]; 45 mg/IVR or 62 mg/IVR,above the known efficacious levels
same,PK levels,[4]; 62 mg vs 45 mg EFdA IVR,dose dependent
"C[C@]12CC[C@@H]3c4ccc(O)cc4CC[C@H]3[C@@H]1CC[C@@H]2O [β-Estradiol, β-estradiol]",log p,[3],3.75
